# Experimental data reported in patent US12359236B2, “Production of 2-hydroxyacyl-CoAs and derivatives thereof” (Mojia Biotech Pte. Ltd., priority 2019, dated 2025).
# How the values were obtained:
# Assay type in all cases: biochemical
# [1] = biological target: Rhodospirillales bacterium URHD0017 2-hydroxyacyl-CoA lyase (RuHACL), wild type, UniProt: A0A1H8YFL8; experiment: Kinetics of RuHACL-catalyzed condensation (ligation) of acetone with formyl-CoA; conditions: 0.5 μM purified RuHACL, 1 mM formyl-CoA, acetone varied, 50 mM KPi pH 7.4, 2.5 mM MgCl2, 0.1 mM TPP, room temperature, 1 min; Michaelis-Menten fit
# Procedure: 0.5 μM purified RuHACL was incubated with 1 mM formyl-CoA in a reaction mixture also containing 50 mM KPi pH 7.4, 2.5 mM MgCl2, and 0.1 mM TPP. The concentration of acetone was varied, and room temperature reactions were carried out for 1 min. 40 μL samples were quenched by addition of 10 μL 0.5 M NaOH and placed on ice. 12.5 μL of a saturated ammonium sulfate solution acidified with 1% sulfuric acid was added and the samples were analyzed by HPLC for the determination of the initial reaction rates after centrifugation at 20817×g for 15 minutes. […] The apparent kcat of RuHACL on acetone was 2.7±0.8 s^−1 while the KM was 1.57±0.68 M, corresponding to a catalytic efficiency of 1.7±0.9 s^−1 M^−1.
# [2] = test system: Rhodospirillales bacterium URHD0017 2-hydroxyacyl-CoA lyase (RuHACL) variant G390N (RuHACL^G390N); experiment: Kinetics of the C1 condensation reaction of the G390N RuHACL mutant on formyl-CoA and formaldehyde; conditions: in vitro, formyl-CoA and formaldehyde as substrates
# [3] = test system: formaldehyde; experiment: Cell-free prototyping of one carbon bioconversion pathway with E. coli cell extracts; conditions: for performance of enzyme variant in cell-free glycolic acid pathway: mixed extracts of HACL and ACR variants, formaldehyde as sole carbon source
# Procedure: Cell-free reactions for pathway prototyping contained 50 mM KPi pH 7.4, 4 mM MgCl2, 0.1 mM TPP, 2.5 mM CoASH, 5 mM NAD^+, and 50 mM formaldehyde. For time course experiments, 0.1 mM coenzyme B12 was added. Individual cell extract loading was around 4.4 g/L protein (⅛ of the reaction volume), and the amount of protein added to each reaction was normalized with BL21(DE3) extract to ˜26 g/L protein (¾ of the reaction volume). Reactions were incubated at room temperature for one hour unless otherwise specified. ¼ of the reaction volume of saturated ammonium sulfate solution acidified with 1% sulfuric acid was added to terminate the reactions. Samples were centrifuged at 20817×g for 15 minutes and the supernatant analyzed by HPLC or GC-MS as described below. For isotope labeling experiments, 13C formaldehyde (Cambridge Isotope Laboratories, Tewksbury, MA) was used.
# We combined extracts of E. coli, prepared as described in the previous example(s), expressing variants of HACL and ACR to rapidly screen for the best performing combinations. […] The combination of LmACR and RuHACL enabled the production of 6.2±0.6 mM glycolic acid in 1 hr. The use of 13C-labeled formaldehyde confirmed that the observed glycolic acid was derived from the C1 substrate, judging by the +2 shift in m/z of the [M-15]^+ ion (FIG. 13C).
# Quantification of product and substrate concentrations (formic acid, formaldehyde, glycolic acid, ethylene glycol, ethanol, acetic acid) were determined via HPLC using a Shimadzu Prominence SIL 20 system (Shimadzu Scientific Instruments, Inc., Columbia, MD) equipped with a refractive index detector and an HPX-87H organic acid column (Bio-Rad, Hercules, CA) with operating conditions to optimize peak separation (0.3 ml/min flowrate, 30 mM H2SO4 mobile phase, column temperature 42° C.). Compound identification and analysis was performed by GC-MS using an Agilent 7890B Series Custom Gas Chromatography system equipped with a 5977B Inert Plus Mass Selective Detector Turbo EI Bundle (for identification) and an Agilent HP-5-ms capillary column (0.25 mm internal diameter, 0.25 μm film thickness, 30 m length).
Molecule,KM of the mutant compared to the wild type [2],kcat of the mutant compared to the wild type [2],performance of enzyme variant in cell-free glycolic acid pathway [3],other results
CC(C)=O [acetone],–,–,–,apparent kcat on acetone [1]: 2.7 ± 0.8 s⁻¹
C=O [formaldehyde],no significant difference,no significant difference,–,–
CC(C)(COP(=O)(O)OP(=O)(O)OC[C@H]1O[C@@H](n2cnc3c(N)ncnc32)[C@H](O)[C@@H]1OP(=O)(O)O)[C@@H](O)C(=O)NCCC(=O)NCCSC=O [formyl-CoA],no significant difference,no significant difference,–,–
HsHACL1: 2-hydroxyacyl-CoA lyase HACL1 from Homo sapiens,–,–,enabling product synthesis,–
"OfOxc: oxalyl-CoA decarboxylase from Oxalobacter formigenes (protein, UniProt P40149 1-568, looked up) Oxalyl-CoA decarboxylase: MSNDDNVELTDGFHVLIDALKMNDIDTMYGVVGIPITNLARMWQDDGQRFYSFRHEQHAGYAASIAGYIEGKPGVCLTVSAPGFLNGVTSLAHATTNCFPMILLSGSSEREIVDLQQGDYEEMDQMNVARPHCKASFRINSIKDIPIGIARAVRTAVSGRPGGVYVDLPAKLFGQTISVEEANKLLFKPIDPAPAQIPAEDAIARAADLIKNAKRPVIMLGKGAAYAQCDDEIRALVEETGIPFLPMGMAKGLLPDNHPQSAAATRAFALAQCDVCVLIGARLNWLMQHGKGKTWGDELKKYVQIDIQANEMDSNQPIAAPVVGDIKSAVSLLRKALKGAPKADAEWTGALKAKVDGNKAKLAGKMTAETPSGMMNYSNSLGVVRDFMLANPDISLVNEGANALDNTRMIVDMLKPRKRLDSGTWGVMGIGMGYCVAAAAVTGKPVIAVEGDSAFGFSGMELETICRYNLPVTVIIMNNGGIYKGNEADPQPGVISCTRLTRGRYDMMMEAFGGKGYVANTPAELKAALEEAVASGKPCLINAMIDPDAGVESGRIKSLNVVSKVGKK",–,–,capable of catalyzing the pathway,–
"FucO: E. coli 1,2-diol oxidoreductase, added as cell extract (protein, UniProt P0A9S1 1-382, looked up, cell extract, E. coli 1,2-diol oxidoreductase, added as cell extract) Lactaldehyde reductase: MANRMILNETAWFGRGAVGALTDEVKRRGYQKALIVTDKTLVQCGVVAKVTDKMDAAGLAWAIYDGVVPNPTITVVKEGLGVFQNSGADYLIAIGGGSPQDTCKAIGIISNNPEFADVRSLEGLSPTNKPSVPILAIPTTAGTAAEVTINYVITDEEKRRKFVCVDPHDIPQVAFIDADMMDGMPPALKAATGVDALTHAIEGYITRGAWALTDALHIKAIEIIAGALRGSVAGDKDAGEEMALGQYVAGMGFSNVGLGLVHGMAHPLGAFYNTPHGVANAILLPHVMRYNADFTGEKYRDIARVMGVKVEGMSLEEARNAAVEAVFALNRDVGIPPHLRDVGVRKEDIPALAQAALDDVCTGGNPREATLEDIVELYHTAW",–,–,–,ethylene glycol synthesis ([3]; extract added to LmACR+RuHACL pathway): 2.73 ± 0.03 mM; fold increase of ethylene glycol ([3]; from 1.37±0.1 mM to 2.73±0.03 mM): 2 fold
